Measured values published in US6562806B1, “Pyrrolobenzodiazepines” (Spirogen Limited, priority 1998, dated 2003).
Read-outs that look alike come from different tables or passages of the source.

Columns and labels:
K562 cells = assay: MTT growth inhibition of K562 cells by irradiated aliquots; type: cell-based, human
Description: An MTT assay was used to evaluate the ability of aliquots of the activated analogues, which were removed at time intervals, to inhibit the growth of chronic human histiocytic leukaemia K562 cells in culture. Following treatment of cells with a range of drug doses, cells were transferred to 96-well microtitre plates, 10^4 cells per well, 8 wells per sample. Plates were incubated at 37° C. in a humidified atmosphere containing 5% CO2. The assay is based on the ability of viable cells to reduce a yellow soluble tetrazolium salt 3-(4,5-dimethylthiazolyl)-2,5-diphenyltetrazolium bromide (MTT), to an insoluble purple formazan precipitate. Following incubation of the plates for 4 days (to allow control cells to increase 10-fold in number), 20 μL of a 5 mg/mL solution of MTT in phosphate-buffered saline was added to each well and the plates were incubated for a further 5 hours. The plates were then centrifuged for 5 minutes at 300 g and the bulk of the medium was removed from the cell pellet. DMSO (200 μL) was added to each well, and the samples agitated to ensure complete mixing. The optical density was then measured at a wavelength of 550 nm on a Titertek Multiscan ELISA plate reader and expressed as a percentage of the control optical density. For each curve, an IC50 value was read as the dose required to reduce the final optical density to 50% of the control value.

[1] = UVA (365 nm) cleavage of photolabile NVOC group monitored by HPLC; type: physicochemical
Description: This experiment involved the irradiation of compound 11, see example 3, in DMF at a concentration of 1 mM using a Stratagene UVA Crosslinker(365 nm). Small aliquots (100 μL) were removed at 30 minutes, 1 hour, 2 hours and 3 hours and the cleavageof the photolabile NVOC group was monitored by HPLC, using a Waters C4, 300 angstrom reversed phase column and a mobile phase of 50% methanol/50% water. Compound 11 has a retention time of 11.25 minutes and upon radiation produced a new peak with a retention time of 8.58 minutes. Authentic benzyl DC-81 has an identical retention time of 8.58 minutes. Complete conversion is achieved by 2 hours of irradiation at 365 nm under the conditions employed.

LS174T cells = assay: Nitroreductase-activation cytotoxicity, SRB assay, LS174T cells; type: cell-based, human
Description: (§1) Compound 7, synthesized according to example 1, was evaluated in two different cell lines, namely SW1116 and LS174T. Both SW1116 and LS174T are human adenocarcinoma colonic cell lines, which were grown at Charing Cross hospital. The cells, at a concentration of 2500 cells/ml, were plated in 96-well microtitre plates, and were incubated at 37° C. for 1 hour with different concentrations of the prodrug, in the presence or absence of E. coli nitroreductase-monoclonal antibody conjugate in phosphate buffer saline (available from Sigma), and NADH (the co-factor necessary for enzyme function) in DMSO. The cells were then washed and incubated for a further 3 days at 37° C. At the end of this period, the cells were fixed (TCA) and stained. The concentration of the remaining viable cells adhering to the plates was quantified by a sulforhodamine B (SRB) dye. The control sets of cells treated with the prodrug alone were used in order to evaluate the cytotoxicity of the compound prior to enzymatic activation.

SW1116 cells = assay: Nitroreductase-activation cytotoxicity, SRB assay, SW1116 cells; type: cell-based, human
Description: as §1

[2] = system: SW1116 and LS174T cell lines; assay: Nitroreductase-activation cytotoxicity, SRB assay, 'same cell lines' (value not assigned to one line); type: cell-based, human
Description: as §1

A2780 = assay: Ovarian cell line cytotoxicity, SRB, 96 hours; type: cell-based; conditions: Homo sapiens; A2780, 96 hours
Description: (§2) Compounds 52 (UP 2073) and the comparative compound 55b (UP2090) were evaluated for their cytotoxic activity in ovarian cell lines by Dr Lloyd R. Kelland's group at The Institute of Cancer Research, Sutton, UK. The five cell lines investigated were SKOV-3, A2780/A2780cisR and CH1/CH1cisR (cisR denotes that the cell line is resistant to cisplatin).
(§3) Single viable cells were seeded in growth medium (160 μL) in 96-well microtitre plates and allowed to attach overnight. The test compounds were then dissolved in DMSO (to give 20 mM drug concentrations) immediately prior to adding the cells in quadruplicate wells. The final drug concentrations in the wells ranged from 100 μM to 2.5 nM as follows:100, 25, 10, 2.5, 1 μM, 250, 100, 25, 10, 2.5 nM (drugs were diluted in growth medium and then 40 μL added to the existing well volume of 160 μL to give final concentrations as above). After 96 hours, the medium was removed and the remaining cells fixed by exposure to 10% trichloroacetic acid on ice for 30 minutes. The wells were then washed 3-4 times with tap water, air dried overnight and treated with 100 μL of sulphorhodamine B (0.4%) dissolved in 1% acetic acid. Staining was allowed to continue for 10-15 minutes, then the wells were washed 3-4 times with 1% acetic acid, air dried and then added to Tris base (100 μL of 10 mM). Plates were then shaken and absorbance readings at […] were determined using a plate reader. The IC50 values were calculated from plots of concentration versus percentage absorbance (compared with 8 untreated wells).

A2780cisR = assay: Ovarian cell line cytotoxicity, SRB, 96 hours; type: cell-based
Description: as §2, §3

CH1cisR = assay: Ovarian cell line cytotoxicity, SRB, 96 hours; type: cell-based
Description: as §2, §3

SKOV3 = assay: Ovarian cell line cytotoxicity, SRB, 96 hours; type: cell-based; conditions: Homo sapiens, SK-OV-3; SKOV3, 96 hours
Description: as §2, §3

CH1 = assay: Ovarian cell line cytotoxicity, SRB, 96 hours; type: cell-based; conditions: Homo sapiens; CH1, 96 hours
Description: as §2, §3

[3] = LS174T, E. coli nitroreductase-antibody conjugate + NADH, read-out: IC50 in the presence of the enzyme and co-factor
[4] = irradiation time 0 hours, DMF at 1 mM initial drug concentration
[5] = irradiation time 0 hours, DMF at 10 mM initial drug concentration

Question: With “1,1′-[[(Propane-1,3-diyl)dioxy]bis[[2-(2,3-dimethoxy-5-nitrobenzyloxycarboxamido)]bis[(11aS)-7-methoxy-1,2,3,11a-tetrahydro-11-hydroxy-5H-pyrrolo[1,2-c][1,4]benzodiazepine-5-one [Compound 32]” as the molecule, how does the IC50 (K562 cells; dimer series (FIG. 9), irradiation time 0 hours, footnote DMF at 1 mM, FIG. 9 legend methanol) read?
Answer: 4.5 µM

Question: What about the IC50 (K562 cells; dimer series (FIG. 9), irradiation time 0.5 hours, footnote DMF at 1 mM, FIG. 9 legend methanol) of the same molecule?
Answer: 1.9 µM

Question: And the IC50 (K562 cells; dimer series (FIG. 9), irradiation time 1.0 hours, footnote DMF at 1 mM, FIG. 9 legend methanol)?
Answer: 1.75 µM

Question: What about the IC50 (K562 cells; dimer series (FIG. 9), irradiation time 2.0 hours, footnote DMF at 1 mM, FIG. 9 legend methanol) of the same molecule?
Answer: 1.25 µM

Question: And the IC50 (K562 cells; dimer series (FIG. 9), irradiation time 5.0 hours, footnote DMF at 1 mM, FIG. 9 legend methanol)?
Answer: 0.85 µM

Question: What about the “irradiation time to almost complete conversion” value ([1]; HPLC data (not shown)) of the same molecule?
Answer: ≤ 2 h

Question: What about the “irradiation time to complete conversion” value ([1]; HPLC data (not shown), dimer prodrug experiments) of the same molecule?
Answer: ≤ 5 h

Question: Which results are given for COc1cc2c(cc1OCc1ccccc1)N(C(=O)OCc1ccc([N+](=O)[O-])cc1)C(O)[C@@H]1CCCN1C2=O (stereo partly drawn) [Compound 7, (11aS)-8-benzyloxy-7-methoxy-1,2,3,10,11,11a-hexahydro-11-hydroxy-10-(p-nitrobenzyloxy)carboxy-5H-pyrrolo[2,1-c][1,4]-benzodiazepine-5-one]?
Answer: toxicity of the prodrug alone (LS174T cells; LS174T cells, no enzyme, concentrations higher than 100 μM): slight toxicity; IC50 (LS174T cells; [3]): 1 to 5 µM; IC50 (SW1116 cells; SW1116, E. coli nitroreductase-antibody conjugate + NADH, read-out: IC50 in the presence of the enzyme and co-factor): 1 to 5 µM; toxicity of the prodrug alone (SW1116 cells; SW1116 cells, no enzyme, concentrations of up to 500 μM): essentially non-toxic; IC50 ([2]; after addition of enzyme conjugate and NADH, cell line not specified, read-out: IC50 of the nitroreductase-activated prodrug): 1 to 5 µM; difference between IC50 of parent drug and nitroreductase-activated prodrug ([2]; parent benzyl DC-81 vs activated prodrug): 20-100 fold

Question: Which IC50 (K562 cells; [4]) does the source give for COc1cc(COC(=O)N2c3cc(OCc4ccccc4)c(OC)cc3C(=O)N3CCC[C@H]3C2O)c([N+](=O)[O-])cc1OC (stereo partly drawn) [Compound 11, (11aS)-8-benzyloxy-7-methoxy-1,2,3,10,11,11a-hexahydro-11-hydroxy-10-(21-nitro-4′,5′-dimethoxybenzyloxy)carboxy-5H-pyrrolo[2,1-c][1,4]-benzodiazepine-5-one] here?
Answer: 47.5 µM

Question: And the IC50 (K562 cells; [5])?
Answer: 48.5 µM

Question: What about the IC50 (K562 cells; irradiation time 0.5 hours, DMF at 1 mM initial drug concentration) of the same molecule?
Answer: 0.98 µM

Question: What about the IC50 (K562 cells; irradiation time 0.5 hours, DMF at 10 mM initial drug concentration) of the same molecule?
Answer: 4.33 µM

Question: What about the IC50 (K562 cells; irradiation time 0.5 hours, FIG. 8: DMF at 1 mM, text says methanol) of the same molecule?
Answer: 4.5 µM

Question: And the IC50 (K562 cells; irradiation time 1.0 hours, DMF at 1 mM initial drug concentration)?
Answer: 0.6 µM

Question: What about the IC50 (K562 cells; irradiation time 1.0 hours, DMF at 10 mM initial drug concentration) of the same molecule?
Answer: 2.17 µM

Question: And the IC50 (K562 cells; irradiation time 1.0 hours, FIG. 8: DMF at 1 mM, text says methanol)?
Answer: 4 µM

Question: What about the IC50 (K562 cells; irradiation time 2.0 hours, DMF at 1 mM initial drug concentration) of the same molecule?
Answer: 0.6 µM

Question: And the IC50 (K562 cells; irradiation time 2.0 hours, DMF at 10 mM initial drug concentration)?
Answer: 1.75 µM

Question: What about the IC50 (K562 cells; irradiation time 2.0 hours, FIG. 8: DMF at 1 mM, text says methanol) of the same molecule?
Answer: 3.2 µM

Question: What about the “irradiation time to complete conversion” value ([1]; DMF, 1 mM, 365 nm, HPLC) of the same molecule?
Answer: ≤ 2 h

Question: With CC=C1C[C@H]2C(O)N(C(=O)OCc3ccc([N+](=O)[O-])cc3)c3cc(OCc4ccccc4)c(OC)cc3C(=O)N2C1 (stereo partly drawn) [Compound 24, (11aS)-8-benzyloxy-7-methoxy-1,3,10,11,11a-tetrahydro-2-ethylidene-11-hydroxy-10-(p-nitrobenzyloxy)carboxy-5H-pyrrolo[2,1-c][1,4]-benzodiazepine-5-one] as the molecule, how does the IC50 ([2]; Homo sapiens, after addition of enzyme conjugate and NADH, cell line not specified, read-out: IC50 of the nitroreductase-activated prodrug) read?
Answer: 6.4 µM

Question: What about the IC50 ([2]; Homo sapiens, no enzyme, average of two experiments, cell line not specified, read-out: IC50 of prodrug alone) of the same molecule?
Answer: 86.2 µM

Question: And the activation factor ([2]; IC50 without / with enzyme conjugate and NADH)?
Answer: approximately 13.5

Question: What does the source list for COc1cc2c(cc1OCCCOc1cc3c(cc1OC)C(=O)N1CCC[C@H]1C(O)N3C(=O)OCc1ccc([N+](=O)[O-])cc1)N(C(=O)OCc1ccc([N+](=O)[O-])cc1)C(O)[C@@H]1CCCN1C2=O (some centres unmarked) [Compound 30]?
Answer: IC50 (LS174T cells; LS174T, no enzyme, average of two measurements, read-out: IC50 of prodrug alone): 215 µM; IC50 (LS174T cells; [3]): 13.7 µM; activation factor (LS174T cells; LS174T, IC50 without / with enzyme and co-factor): 15-16 fold

Question: For COc1cc2c(cc1OCCCOc1cc3c(cc1OC)C(=O)N1CCC[C@H]1C=N3)N=C[C@@H]1CCCN1C2=O [DSB-120, reference compound], which IC50 (LS174T cells; Homo sapiens, LS174T, read-out: cytotoxicity (IC50) of the parent agent) is on record?
Answer: 0.0005 µM

Question: What about the IC50 (K562 cells; Homo sapiens, K562, light or radiation study, dimer series (FIG. 9), irradiation time 0 hours, footnote DMF at 1 mM, FIG. 9 legend methanol) of the same molecule?
Answer: 0.55 µM

Question: With COc1cc2c(cc1OC)C(=O)N1CCC[C@H]1C=N2 [UP2025] as the molecule, how does the IC50 (A2780) read?
Answer: 0.064 µM

Question: And the “RF (resistance factor)” value (A2780cisR; A2780cisR divided by A2780)?
Answer: 2.4

Question: What about the IC50 (A2780cisR; Homo sapiens, A2780cisR (cisplatin resistant), 96 hours) of the same molecule?
Answer: 0.155 µM

Question: What about the “RF (resistance factor)” value (CH1cisR; CH1cisR divided by CH1) of the same molecule?
Answer: 1.3

Question: What about the IC50 (CH1cisR; Homo sapiens, CH1cisR (cisplatin resistant), 96 hours) of the same molecule?
Answer: 0.11 µM

Question: What about the IC50 (SKOV3) of the same molecule?
Answer: 1.7 µM

Question: And the IC50 (CH1)?
Answer: 0.082 µM

Question: What does the source list for COc1cc2c(cc1OCc1ccccc1)N=C[C@@H]1CCCN1C2=O [benzyl DC-81, reference compound]?
Answer: IC50 (K562 cells; [4]): 0.5 µM; IC50 (K562 cells; [5]): 0.5 µM; IC50 (K562 cells; irradiation time 0 hours, FIG. 8: DMF at 1 mM, text says methanol): 0.5 µM; IC50 ([2]; same cell lines, same conditions, read-out: IC50 of the parent drug): 0.008 µM
